Test results from patent publication US20260210856A1, “CONJUGATED OLIGOELECTROLYTES WITH BORON-DIPYRROMETHENE CORES AND METHODS THEREOF” (National University of Singapore, priority 2022, published 2026).

Experiments:
[1] = Photophysical properties in PBS and in SUVs (POPC:POPG 85:15); format: physicochemical; conditions: for FWHM: fluorescence spectra, intercalated within SUVs; for fluorescence intensity increase upon inserting into lipid bilayers: relative to the values measured in PBS
Text: The photophysical properties of the COE-BY series were studied in phosphate-buffered saline (PBS) and within model lipid bilayers. Small unilamellar vesicles (SUVs) composed of 1-palmitoyl-2-oleoyl-glycero-3-phosphocholine (POPC) and 1-palmitoyl-2-oleoyl-sn-glycero-3-phospho-(1′-rac-glycerol) sodium (POPG) (85:15, mol/mol) were used to simulate the lipid environment in cell membranes. The absorption spectra in PBS for all compounds feature a main peak at ~550 nm, reflecting the presence of the BODIPY subunit (FIG. 9A). One also observes a 5-10 nm red-shift of lowest energy absorption peak with increasing electron-withdrawing strength of the phenyl substituents.
Upon inserting into lipid bilayers, the fluorescence intensity increases over 27-fold for COE-BYPhMe, 30-fold for COE-BYPhOC4, 35-fold for COE-BYPhCN and 40-fold for COE-BYPhNO, relative to the values measured in PBS (FIG. 1c and FIG. S5). The increase in emission intensity reflects a transition to a more rigid and hydrophobic environment. Quantum yields increase to 32% for COE-BYPhMe, 60% for COE-BYPhOC4, 13% for COE-BYPhCN, and 10% for COE-BYPhNO in SUVs from 1% for COE-BYPhMe, 3% for COE-BYPhOC4, and 0.5% for COE-BYPhCN in PBS. The QY of COE-BYPhNO in PBS cannot be accurately determined by using a conventional fluorometer due to its weak fluorescence. The maximum emission wavelengths are redshifted from 587/589 nm (COE-BYPhMe/OC4) to 605/611 nm (COE-BYPhCN/NO) as a result of the decreased HOMO-LUMO energy gaps. […] Furthermore, the fluorescence spectra of COE-BYs intercalated within SUVs show a narrow band at wavelengths between 587 nm and 611 nm, with a full width half maximum (FWHM) linewidth of 52-68 nm (Table 1).

[2] = commercial dyes for comparison; cited from earlier work
A549 cells = assay: Two-photon fluorescence imaging and FLIM of stained cells; format: cell-based; conditions: A549, 1 μM, 24 hours
Text: Fluorescence imaging is usually based on the analysis of fluorescence intensity, which is affected by many factors including dye concentration, laser power, the sensitivity of the detector, and sampling time. The main advantage of fluorescence lifetime imaging (FLIM) is independent of the above experimental conditions, especially the local dye concentration gradients, which makes FLIM an ideal method for studies in living cell models. […] The fluorescence lifetime of COE-BYs could be a function of viscosity after calibration. FLIM makes it possible to produce spatial viscosity maps after staining with COE-BYs. A549 cells were stained with COE-BYPhMe and COE-S6 (1 μM) for 24 hours, respectively. The cell samples were analyzed using two-photon fluorescence imaging and FLIM.

| FWHM [1] [nm] | ΦF in PBS ([1]; in PBS) [%] | λabs ([1]; in PBS) [nm] | λem in PBS ([1]; in PBS) [nm] | ΦF in SUVs [1] [%] | λem in SUVs [1] [nm] | fluorescence intensity increase upon inserting into lipid bilayers [1] [fold] | SMILES | two photon absorption cross section area [2] [GM] | lifetimes in phasor plot (A549 cells) |
| --- | --- | --- | --- | --- | --- | --- | --- | --- | --- |
| 63 | 0.5 | 550 | 618 | 13 | 605 | > 35 | CC1=C(c2ccc(/C=C/c3cc(OCCCCCC[N+](C)(C)C)c(OCCCCCC[N+](C)(C)C)c(OCCCCCC[N+](C)(C)C)c3)cc2)C(C)=[N+]2C1=C(c1ccc(C#N)cc1)c1c(C)c(-c3ccc(/C=C/c4cc(OCCCCCC[N+](C)(C)C)c(OCCCCCC[N+](C)(C)C)c(OCCCCCC[N+](C)(C)C)c4)cc3)c(C)n1[B-]2(F)F.[I-].[I-].[I-].[I-].[I-].[I-] [COE-BYPhCN] | – | – |
| – | – | – | – | – | – | – | CCCCCCCCCCCCCCCCCCN1/C(=C/C=C/C2=[N+](CCCCCCCCCCCCCCCCCC)c3ccccc3C2(C)C)C(C)(C)c2ccccc21.[O-][Cl+3]([O-])([O-])[O-] [DiL, carbocyanine DiL] | 10 | – |
| – | – | – | – | – | – | – | CCN(CC)c1ccc2c(-c3ccccc3C(=O)O)c3ccc(=[N+](CC)CC)cc-3oc2c1.[Cl-] [Rhodamine B] | 150 | – |
| 68 | – | 556 | 625 | 10 | 611 | > 40 | CC1=C(c2ccc(/C=C/c3cc(OCCCCCC[N+](C)(C)C)c(OCCCCCC[N+](C)(C)C)c(OCCCCCC[N+](C)(C)C)c3)cc2)C(C)=[N+]2C1=C(c1ccc([N+](=O)[O-])cc1)c1c(C)c(-c3ccc(/C=C/c4cc(OCCCCCC[N+](C)(C)C)c(OCCCCCC[N+](C)(C)C)c(OCCCCCC[N+](C)(C)C)c4)cc3)c(C)n1[B-]2(F)F.[I-].[I-].[I-].[I-].[I-].[I-] [COE-BYPhNO] | – | – |
| – | – | – | – | – | – | – | C[N+](C)(C)CCCCCCOc1cc(/C=C/c2ccc(/C=C/c3ccc(/C=C/c4ccc(/C=C/c5ccc(/C=C/c6cc(OCCCCCC[N+](C)(C)C)c(OCCCCCC[N+](C)(C)C)c(OCCCCCC[N+](C)(C)C)c6)cc5)cc4)cc3)cc2)cc(OCCCCCC[N+](C)(C)C)c1OCCCCCC[N+](C)(C)C.[I-].[I-].[I-].[I-].[I-].[I-] [COE-S6] | – | only single area in the phasor plot |
